Reference: ChEMBL document CHEMBL3046319, “PCR-RFLP detection of the E198A mutation conferring resistance to benzimidazoles in field isolates of Monilinia laxa from Greece” (Crop Prot, 2012)
Values after ≈ are worked out from the molar mass of the structure shown. Active and inactive are the calls of the source. No cut-off for these calls is given here.

Legend:
[1] = tested on: Monilinia laxa; assay: Fungicidal activity against Monilinia laxa isolate KX4 assessed as reduction in mycelial growth rate at 1 to 10 ug/ml at 31 degC after 5 days; format: functional, organism-based
[2] = tested on: Monilinia laxa; assay: Fungicidal activity against Monilinia laxa isolate MLK4A assessed as reduction in mycelial growth rate at 1 to 10 ug/ml at 31 degC after 5 days; format: functional, organism-based
[3] = tested on: Monilinia laxa; assay: Fungicidal activity against Monilinia laxa isolate MLP2 assessed as mycelial growth at 1 ug/ml at 25 degC after 4 days; format: functional
[4] = tested on: Monilinia laxa; assay: Fungicidal activity against Monilinia laxa isolate MLX5 assessed as mean number of conidia produced in the colony at 25 degC after 12 days by haemocytometer; format: functional
[5] = tested on: Monilinia laxa; assay: Fungicidal activity against Monilinia laxa isolate KX2 assessed as reduction in mycelial growth rate at 25 degC after 4 days; format: functional, organism-based; details: isolate KX2, 96 h
[6] = tested on: Monilinia laxa; assay: Fungicidal activity against Monilinia laxa isolate MLK1 assessed as reduction in mycelial growth rate at 25 degC after 4 days; format: functional, organism-based; details: isolate MLK1, 96 h
[7] = tested on: Monilinia laxa; assay: Fungicidal activity against Monilinia laxa isolate MLBO4 assessed as reduction in mycelial growth rate at 1 to 10 ug/ml at 31 degC after 5 days; format: functional, organism-based
[8] = tested on: Monilinia laxa; assay: Fungicidal activity against Monilinia laxa isolate MLNS2 assessed as reduction in mycelial growth rate at 1 to 10 ug/ml at 25 to 28 degC; format: functional, organism-based
[9] = tested on: Monilinia laxa; assay: Fungicidal activity against Monilinia laxa isolate MLP2 assessed as mean number of conidia produced in the colony at 25 degC after 12 days by haemocytometer; format: functional
[10] = tested on: Monilinia laxa; assay: Fungicidal activity against Monilinia laxa isolate MLA1 assessed as mean mycelial colony diameter at 25 degC after 4 days; format: functional
[11] = tested on: Monilinia laxa; assay: Fungicidal activity against Monilinia laxa isolate MLBO5 assessed as mycelial growth at 1 ug/ml at 25 degC after 4 days; format: functional
[12] = tested on: Monilinia laxa; assay: Fungicidal activity against Monilinia laxa isolate MLC4 assessed as reduction in mycelial growth rate at 1 to 10 ug/ml at 31 degC after 5 days; format: functional, organism-based
[13] = tested on: Monilinia laxa; assay: Fungicidal activity against Monilinia laxa isolate MLB1 assessed as reduction in mycelial growth rate at 1 to 10 ug/ml at 28 degC after 8 days; format: functional, organism-based
[14] = tested on: Monilinia laxa; assay: Fungicidal activity against Monilinia laxa isolate MLK1 assessed as reduction in mycelial growth rate at 1 to 10 ug/ml at 25 to 28 degC; format: functional, organism-based
[15] = tested on: Monilinia laxa; assay: Fungicidal activity against Monilinia laxa isolate KX1 assessed as reduction in mycelial growth rate at 1 to 10 ug/ml at 31 degC after 5 days; format: functional, organism-based
[16] = tested on: Monilinia laxa; assay: Fungicidal activity against Monilinia laxa isolate MLK7 assessed as reduction in mycelial growth rate at 25 degC after 4 days; format: functional, organism-based; details: isolate MLK7, 96 h
[17] = tested on: Monilinia laxa; assay: Fungicidal activity against Monilinia laxa isolate MLG1 assessed as mean mycelial colony diameter at 25 degC after 4 days; format: functional
[18] = tested on: Monilinia laxa; assay: Fungicidal activity against Monilinia laxa isolate MLK12 assessed as reduction in mycelial growth rate at 1 to 10 ug/ml at 25 to 28 degC; format: functional, organism-based
[19] = tested on: Monilinia laxa; assay: Fungicidal activity against Monilinia laxa isolate MLBO6 assessed as reduction in mycelial growth rate at 1 to 10 ug/ml at 31 degC after 5 days; format: functional, organism-based
[20] = tested on: Monilinia laxa; assay: Fungicidal activity against Monilinia laxa isolate MLP2 assessed as mean mycelial colony diameter at 25 degC after 4 days; format: functional
[21] = tested on: Monilinia laxa; assay: Fungicidal activity against Monilinia laxa isolate MLX1 assessed as reduction in mycelial growth rate at 25 degC after 4 days; format: functional, organism-based; details: isolate MLX1, 96 h
[22] = tested on: Monilinia laxa; assay: Fungicidal activity against Monilinia laxa isolate MLBO2 assessed as mycelial growth at 1 ug/ml at 25 degC after 4 days; format: functional
[23] = tested on: Monilinia laxa; assay: Fungicidal activity against Monilinia laxa isolate MLX1 assessed as mycelial growth at 1 ug/ml at 25 degC after 4 days; format: functional
[24] = tested on: Monilinia laxa; assay: Fungicidal activity against Monilinia laxa isolate MLX1 assessed as mean mycelial colony diameter at 25 degC after 4 days; format: functional
[25] = tested on: Monilinia laxa; assay: Fungicidal activity against Monilinia laxa isolate MLX3 assessed as reduction in mycelial growth rate at 1 to 10 ug/ml at 25 to 28 degC; format: functional, organism-based
[26] = tested on: Monilinia laxa; assay: Fungicidal activity against Monilinia laxa isolate MLP2 assessed as virulence in prune fruits assessed as virulence treated 10 min prior to mycelial inoculation at 24 degC after 10 days relative to isolate MLX1by pathogenicity bioassay; format: functional
[27] = tested on: Monilinia laxa; assay: Fungicidal activity against Monilinia laxa isolate MLK4 assessed as reduction in mycelial growth rate at 25 degC after 4 days; format: functional, organism-based; details: isolate MLK4, 96 h
[28] = tested on: Monilinia laxa; assay: Fungicidal activity against Monilinia laxa isolate MLC1 assessed as reduction in mycelial growth rate at 25 degC after 4 days; format: functional, organism-based; details: isolate MLC1, 96 h
[29] = tested on: Monilinia laxa; assay: Fungicidal activity against Monilinia laxa isolate MLK12 assessed as reduction in mycelial growth rate at 25 degC after 4 days; format: functional, organism-based; details: isolate MLK12, 96 h
[30] = tested on: Monilinia laxa; assay: Fungicidal activity against Monilinia laxa isolate MLG1 assessed as reduction in mycelial growth rate at 1 to 10 ug/ml at 31 degC after 5 days; format: functional, organism-based
[31] = tested on: Monilinia laxa; assay: Fungicidal activity against Monilinia laxa isolate MLBO5 assessed as reduction in mycelial growth rate at 25 degC after 4 days; format: functional, organism-based; details: isolate MLBO5, 96 h
[32] = tested on: Monilinia laxa; assay: Fungicidal activity against Monilinia laxa isolate MLC2 assessed as reduction in mycelial growth rate at 1 to 10 ug/ml at 28 degC after 8 days; format: functional, organism-based
[33] = tested on: Monilinia laxa; assay: Fungicidal activity against Monilinia laxa isolate MLX2 assessed as reduction in mycelial growth rate at 25 degC after 4 days; format: functional, organism-based; details: isolate MLX2, 96 h
[34] = tested on: Monilinia laxa; assay: Fungicidal activity against Monilinia laxa isolate MLX5 assessed as reduction in mycelial growth rate at 1 to 10 ug/ml at 25 to 28 degC; format: functional, organism-based
[35] = tested on: Monilinia laxa; assay: Fungicidal activity against Monilinia laxa isolate MLP4 assessed as mean mycelial colony diameter at 25 degC after 4 days; format: functional
[36] = tested on: Monilinia laxa; assay: Fungicidal activity against Monilinia laxa isolate MLC5 assessed as reduction in mycelial growth rate at 25 degC after 4 days; format: functional, organism-based; details: isolate MLC5, 96 h
[37] = tested on: Monilinia laxa; assay: Fungicidal activity against Monilinia laxa isolate MLG1 assessed as mean number of conidia produced in the colony at 25 degC after 12 days by haemocytometer; format: functional
[38] = tested on: Monilinia laxa; assay: Fungicidal activity against Monilinia laxa isolate MLG3 assessed as reduction in mycelial growth rate at 1 to 10 ug/ml at 31 degC after 5 days; format: functional, organism-based
[39] = tested on: Monilinia laxa; assay: Fungicidal activity against Monilinia laxa isolate MLNS2 assessed as reduction in mycelial growth rate at 25 degC after 4 days; format: functional, organism-based; details: isolate MLNS2, 96 h
[40] = tested on: Monilinia laxa; assay: Fungicidal activity against Monilinia laxa isolate MLX1 assessed as mean number of conidia produced in the colony at 25 degC after 12 days by haemocytometer; format: functional
[41] = tested on: Monilinia laxa; assay: Fungicidal activity against Monilinia laxa isolate MLX5 assessed as reduction in mycelial growth rate at 1 to 10 ug/ml at 31 degC after 5 days; format: functional, organism-based
[42] = tested on: Monilinia laxa; assay: Fungicidal activity against Monilinia laxa isolate MLK10 assessed as reduction in mycelial growth rate at 1 to 10 ug/ml at 31 degC after 5 days; format: functional, organism-based
[43] = tested on: Monilinia laxa; assay: Fungicidal activity against Monilinia laxa isolate MLG4 assessed as reduction in mycelial growth rate at 25 degC after 4 days; format: functional, organism-based; details: isolate MLG4, 96 h

COC(=O)Nc1nc2ccccc2[nH]1 [CARBENDAZIM]
inhibition [1]: Active
inhibition [2]: Active
Activity [3]: 0%
Activity [4]: 4.4 /cm2
EC50 [5]: 0.08 µg/mL (≈ 0.418 µM)
EC50 [6]: > 50 µg/mL
inhibition [7]: Active
inhibition [8]: inactive
Activity [9]: 4.15 /cm2
Activity [10]: 27.1 mm
Activity [11]: 0%
inhibition [12]: Active
inhibition [13]: inactive
inhibition [14]: inactive
inhibition [15]: Active
EC50 [16]: 0.08 µg/mL (≈ 0.418 µM)
Activity [17]: 25.55 mm
inhibition [18]: inactive
inhibition [19]: Active
Activity [20]: 25.5 mm
EC50 [21]: > 50 µg/mL
Activity [22]: 0%
Activity [23]: 100%
Activity [24]: 31.25 mm
inhibition [25]: inactive
Activity [26]: 87.37%
EC50 [27]: > 50 µg/mL
EC50 [28]: 0.03 µg/mL (≈ 0.157 µM)
EC50 [29]: > 50 µg/mL
inhibition [30]: Active
EC50 [31]: 0.07 µg/mL (≈ 0.366 µM)
inhibition [32]: inactive
EC50 [33]: 0.12 µg/mL (≈ 0.628 µM)
inhibition [34]: inactive
Activity [35]: 32.5 mm
EC50 [36]: 0.11 µg/mL (≈ 0.575 µM)
Activity [37]: 5.85 /cm2
inhibition [38]: Active
EC50 [39]: > 50 µg/mL
Activity [40]: 4 /cm2
inhibition [41]: Active
inhibition [42]: Active
EC50 [43]: 0.11 µg/mL (≈ 0.575 µM)
